In BindingDB's records for doi:10.1021/jm00015a003 (Warner-Lambert, 1995):
pIC50: −log10 of the molar value. Square brackets hold non-standard residues; d marks the D form. Peptide text beside a SMILES is read from it. * marks the point of attachment. dDip = N[C@@H](C(=O)O)C(c1ccccc1)c1ccccc1; Dip = N[C@H](C(=O)O)C(c1ccccc1)c1ccccc1; Orn = NCCC[C@H](N)C(=O)O; Ms = CS(=O)(=O)*

Assay: Inhibition of ET-1 stimulated arachidonic acid release in rabbit renal vascular smooth muscle cells

Row | Compound | pIC50
1 | CC[C@H](C)[C@H](NC(=O)[C@H](C)NC(=O)[C@H](CC(C)C)NC(=O)[C@@H](NC(C)=O)C(c1ccccc1)c1ccccc1)C(=O)N[C@H](C(=O)N[C@@H](Cc1c[nH]c2ccccc12)C(=O)O)[C@@H](C)CC [(S)-2-[(2S,3S)-2-((2S,3S)-2-{(S)-2-[(S)-2-((S)-2-Acetylamino-3,3-diphenyl-propionylamino)-4-methyl-pentanoylamino]-propionylamino}-3-methyl-pentanoylamino)-3-methyl-pentanoylamino]-3-(1H-indol-3-yl)-propionic acid] (Ac-[Dip]LAIIW-OH) | 7.15
2 | CC[C@H](C)[C@H](NC(=O)[C@H](CC(=O)O)NC(=O)[C@@H](Cc1ccccc1)NC(=O)[C@@H](NC(C)=O)C(c1ccccc1)c1ccccc1)C(=O)N[C@H](C(=O)N[C@@H](Cc1c[nH]c2ccccc12)C(=O)O)[C@@H](C)CC [(S)-3-[(R)-2-((S)-2-Acetylamino-3,3-diphenyl-propionylamino)-3-phenyl-propionylamino]-N-((1S,2S)-1-{(1S,2S)-1-[(S)-1-carboxy-2-(1H-indol-3-yl)-ethylcarbamoyl]-2-methyl-butylcarbamoyl}-2-methyl-butyl)-succinamic acid] | 6.28
3 | CC[C@H](C)[C@H](NC(=O)[C@H](CC(=O)O)NC(=O)[C@H](CC(C)C)NC(=O)[C@H](NC(C)=O)C(c1ccccc1)c1ccccc1)C(=O)N[C@@H](Cc1ccccc1)C(=O)N[C@@H](Cc1c[nH]c2ccccc12)C(=O)O [(S)-3-[(S)-2-((S)-2-Acetylamino-3,3-diphenyl-propionylamino)-4-methyl-pentanoylamino]-N-((1S,2S)-1-{(S)-1-[(S)-1-carboxy-2-(1H-indol-3-yl)-ethylcarbamoyl]-2-phenyl-ethylcarbamoyl}-2-methyl-butyl)-succinamic acid] | < 5.00
4 | CC[C@H](C)[C@H](NC(=O)[C@H](Cc1ccccc1)NC(=O)[C@H](CC(=O)O)NC(=O)[C@H](CC(C)C)NC(=O)[C@@H](NC(C)=O)C(c1ccccc1)c1ccccc1)C(=O)N[C@@H](Cc1c[nH]c2ccccc12)C(=O)O [(S)-3-[(S)-2-((S)-2-Acetylamino-3,3-diphenyl-propionylamino)-4-methyl-pentanoylamino]-N-((S)-1-{(1S,2S)-1-[(S)-1-carboxy-2-(1H-indol-3-yl)-ethylcarbamoyl]-2-methyl-butylcarbamoyl}-2-phenyl-ethyl)-succinamic acid] (Ac-[Dip]LDFIW-OH) | 6.80
5 | CC[C@H](C)[C@H](NC(=O)[C@H](CC(=O)O)NC(=O)[C@H](CC(C)C)NC(=O)[C@H](NC(C)=O)C(c1ccccc1)c1ccccc1)C(=O)N[C@H](C(=O)N[C@@H](Cc1ccccc1)C(=O)O)[C@@H](C)CC [(S)-3-[(S)-2-((S)-2-Acetylamino-3,3-diphenyl-propionylamino)-4-methyl-pentanoylamino]-N-{(1S,2S)-1-[(1S,2S)-1-(1-carboxy-2-phenyl-ethylcarbamoyl)-2-methyl-butylcarbamoyl]-2-methyl-butyl}-succinamic acid] | < 5.00
6 | CC[C@H](C)[C@H](NC(=O)[C@H](CC(=O)O)NC(=O)[C@H](CCCN)NC(=O)[C@@H](NC(C)=O)C(c1ccccc1)c1ccccc1)C(=O)N[C@H](C(=O)N[C@@H](Cc1c[nH]c2ccccc12)C(=O)O)[C@@H](C)CC [(S)-3-[(S)-2-((S)-2-Acetylamino-3,3-diphenyl-propionylamino)-5-amino-pentanoylamino]-N-((1S,2S)-1-{(1S,2S)-1-[(S)-1-carboxy-2-(1H-indol-3-yl)-ethylcarbamoyl]-2-methyl-butylcarbamoyl}-2-methyl-butyl)-succinamic acid] (Ac-[Dip][Orn]DIIW-OH) | 7.52
7 | CC[C@H](C)[C@H](NC(=O)[C@H](CC(=O)O)NC(=O)[C@H](CCCNC(=N)N)NC(=O)[C@H](NC(C)=O)C(c1ccccc1)c1ccccc1)C(=O)N[C@H](C(=O)N[C@@H](Cc1c[nH]c2ccccc12)C(=O)O)[C@@H](C)CC [(S)-3-[(S)-2-((S)-2-Acetylamino-3,3-diphenyl-propionylamino)-5-guanidino-pentanoylamino]-N-((1S,2S)-1-{(1S,2S)-1-[(S)-1-carboxy-2-(1H-indol-3-yl)-ethylcarbamoyl]-2-methyl-butylcarbamoyl}-2-methyl-butyl)-succinamic acid] | 7.85
8 | CC[C@H](C)[C@H](NC(=O)[C@H](CC(=O)O)NC(=O)[C@H](CCC(=O)O)NC(=O)[C@H](NC(C)=O)C(c1ccccc1)c1ccccc1)C(=O)N[C@H](C(=O)N[C@@H](Cc1c[nH]c2ccccc12)C(=O)O)[C@@H](C)CC [(S)-4-((S)-2-Acetylamino-3,3-diphenyl-propionylamino)-4-[(S)-2-carboxy-1-((1S,2S)-1-{(1S,2S)-1-[(S)-1-carboxy-2-(1H-indol-3-yl)-ethylcarbamoyl]-2-methyl-butylcarbamoyl}-2-methyl-butylcarbamoyl)-ethylcarbamoyl]-butyric acid] (Ac-[dDip]EDIIW-OH) | 6.89
9 | CC[C@H](C)[C@H](NC(=O)[C@H](CC(=O)O)NC(=O)[C@H](CC(C)C)NC(=O)[C@@H](NS(C)(=O)=O)C(c1ccccc1)c1ccccc1)C(=O)N[C@H](C(=O)N[C@@H](Cc1c[nH]c2ccccc12)C(=O)O)[C@@H](C)CC [(S)-N-((1S,2S)-1-{(1S,2S)-1-[(S)-1-Carboxy-2-(1H-indol-3-yl)-ethylcarbamoyl]-2-methyl-butylcarbamoyl}-2-methyl-butyl)-3-[(S)-2-((S)-2-methanesulfonylamino-3,3-diphenyl-propionylamino)-4-methyl-pentanoylamino]-succinamic acid] (Ms-[Dip]LDIIW-OH) | 5.68

Next, values leading:

Row | pIC50 | Compound
10 | 5.22 | CC[C@H](C)[C@H](NC(=O)[C@H](CC(=O)O)NC(=O)[C@H](CC(C)C)NC(=O)[C@H](NC(C)=O)C(c1ccccc1)c1ccccc1)C(=O)N[C@H](C(=O)N[C@@H](Cc1c[nH]c2ccccc12)C(N)=O)[C@@H](C)CC [(S)-3-[(S)-2-((S)-2-Acetylamino-3,3-diphenyl-propionylamino)-4-methyl-pentanoylamino]-N-((1S,2S)-1-{(1S,2S)-1-[(S)-1-carbamoyl-2-(1H-indol-3-yl)-ethylcarbamoyl]-2-methyl-butylcarbamoyl}-2-methyl-butyl)-succinamic acid] (Ac-[dDip]LDIIW-NH2)
11 | 6.47 | CC[C@H](C)[C@H](NC(=O)[C@H](CC(=O)O)NC(=O)[C@H](CC(C)C)NC(=O)[C@H](NC(C)=O)C(c1ccccc1)c1ccccc1)C(=O)N[C@@H](CC(C)C)C(=O)N[C@@H](Cc1c[nH]c2ccccc12)C(=O)O [(S)-3-[(S)-2-((S)-2-Acetylamino-3,3-diphenyl-propionylamino)-4-methyl-pentanoylamino]-N-((1S,2S)-1-{(S)-1-[(S)-1-carboxy-2-(1H-indol-3-yl)-ethylcarbamoyl]-3-methyl-butylcarbamoyl}-2-methyl-butyl)-succinamic acid]
12 | < 5.00 | CC[C@H](C)[C@H](NC(=O)[C@H](CC(=O)O)NC(=O)[C@H](CC(C)C)NC(=O)[C@@H](NC(C)=O)C(c1ccccc1)c1ccccc1)C(=O)N[C@@H](CCCCN)C(=O)N[C@@H](Cc1c[nH]c2ccccc12)C(=O)O [(S)-3-[(S)-2-((S)-2-Acetylamino-3,3-diphenyl-propionylamino)-4-methyl-pentanoylamino]-N-((1S,2S)-1-{(S)-5-amino-1-[(S)-1-carboxy-2-(1H-indol-3-yl)-ethylcarbamoyl]-pentylcarbamoyl}-2-methyl-butyl)-succinamic acid] (Ac-[Dip]LDIKW-OH)
13 | 7.54 | CC[C@H](C)[C@H](NC(=O)[C@@H](NC(=O)[C@H](CC(=O)O)NC(=O)[C@H](CC(C)C)NC(=O)[C@@H](NC(C)=O)C(c1ccccc1)c1ccccc1)C(C)C)C(=O)N[C@@H](Cc1c[nH]c2ccccc12)C(=O)O [(S)-3-[(S)-2-((S)-2-Acetylamino-3,3-diphenyl-propionylamino)-4-methyl-pentanoylamino]-N-((S)-1-{(1S,2S)-1-[(S)-1-carboxy-2-(1H-indol-3-yl)-ethylcarbamoyl]-2-methyl-butylcarbamoyl}-2-methyl-propyl)-succinamic acid] (Ac-[Dip]LDVIW-OH)
14 | 6.38 | CC[C@H](C)[C@H](NC(=O)[C@H](C)NC(=O)[C@H](CC(=O)O)NC(=O)[C@H](CC(C)C)NC(=O)[C@H](NC(C)=O)C(c1ccccc1)c1ccccc1)C(=O)N[C@@H](Cc1c[nH]c2ccccc12)C(=O)O [(S)-3-[(S)-2-((S)-2-Acetylamino-3,3-diphenyl-propionylamino)-4-methyl-pentanoylamino]-N-((S)-1-{(1S,2S)-1-[(S)-1-carboxy-2-(1H-indol-3-yl)-ethylcarbamoyl]-2-methyl-butylcarbamoyl}-ethyl)-succinamic acid]
15 | < 5.00 | CC[C@H](C)[C@H](NC(=O)[C@H](CCCCN)NC(=O)[C@H](CC(=O)O)NC(=O)[C@H](CC(C)C)NC(=O)[C@H](NC(C)=O)C(c1ccccc1)c1ccccc1)C(=O)N[C@@H](Cc1c[nH]c2ccccc12)C(=O)O [(S)-3-[(S)-2-((S)-2-Acetylamino-3,3-diphenyl-propionylamino)-4-methyl-pentanoylamino]-N-((S)-5-amino-1-{(1S,2S)-1-[(S)-1-carboxy-2-(1H-indol-3-yl)-ethylcarbamoyl]-2-methyl-butylcarbamoyl}-pentyl)-succinamic acid]
16 | 6.37 | CC[C@H](C)[C@H](NC(=O)[C@H](CCC(=O)O)NC(=O)[C@H](CC(C)C)NC(=O)[C@@H](NC(C)=O)C(c1ccccc1)c1ccccc1)C(=O)N[C@H](C(=O)N[C@@H](Cc1c[nH]c2ccccc12)C(=O)O)[C@@H](C)CC [(S)-4-[(S)-2-((S)-2-Acetylamino-3,3-diphenyl-propionylamino)-4-methyl-pentanoylamino]-4-((1S,2S)-1-{(1S,2S)-1-[(S)-1-carboxy-2-(1H-indol-3-yl)-ethylcarbamoyl]-2-methyl-butylcarbamoyl}-2-methyl-butylcarbamoyl)-butyric acid] (Ac-[Dip]LEIIW-OH)
17 | 6.35 | CC[C@H](C)[C@H](NC(=O)[C@H](CCC(=O)O)NC(=O)[C@H](CC(=O)O)NC(=O)[C@H](CC(C)C)NC(=O)[C@H](NC(C)=O)C(c1ccccc1)c1ccccc1)C(=O)N[C@@H](Cc1c[nH]c2ccccc12)C(=O)O [(S)-4-{(S)-2-[(S)-2-((S)-2-Acetylamino-3,3-diphenyl-propionylamino)-4-methyl-pentanoylamino]-3-carboxy-propionylamino}-4-{(1S,2S)-1-[(S)-1-carboxy-2-(1H-indol-3-yl)-ethylcarbamoyl]-2-methyl-butylcarbamoyl}-butyric acid] (Ac-[dDip]LDEIW-OH)
